Results reported in publication PMC6720199, “Antioxidant, Anti-Inflammatory, and Multidrug Resistance Modulation Activity of Silychristin Derivatives” (Antioxidants, 2019).

Molecular target: T1, P-glycoprotein (P-gp, ABCB1) (Homo sapiens, UniProt P08183)
T1 construct: P-gp containing membranes of the commercial Pgp-Glo Assay System (Promega; kit membranes carry recombinant human P-gp); full length, not purified
Assay: Pgp-Glo luminescent ATPase assay, P-gp membranes
Type: biochemical
Excerpt: Pgp-Glo luminescent ATPase assay, P-gp membranes on P-glycoprotein (P-gp, ABCB1)

T1 sequence (P08183 whole entry): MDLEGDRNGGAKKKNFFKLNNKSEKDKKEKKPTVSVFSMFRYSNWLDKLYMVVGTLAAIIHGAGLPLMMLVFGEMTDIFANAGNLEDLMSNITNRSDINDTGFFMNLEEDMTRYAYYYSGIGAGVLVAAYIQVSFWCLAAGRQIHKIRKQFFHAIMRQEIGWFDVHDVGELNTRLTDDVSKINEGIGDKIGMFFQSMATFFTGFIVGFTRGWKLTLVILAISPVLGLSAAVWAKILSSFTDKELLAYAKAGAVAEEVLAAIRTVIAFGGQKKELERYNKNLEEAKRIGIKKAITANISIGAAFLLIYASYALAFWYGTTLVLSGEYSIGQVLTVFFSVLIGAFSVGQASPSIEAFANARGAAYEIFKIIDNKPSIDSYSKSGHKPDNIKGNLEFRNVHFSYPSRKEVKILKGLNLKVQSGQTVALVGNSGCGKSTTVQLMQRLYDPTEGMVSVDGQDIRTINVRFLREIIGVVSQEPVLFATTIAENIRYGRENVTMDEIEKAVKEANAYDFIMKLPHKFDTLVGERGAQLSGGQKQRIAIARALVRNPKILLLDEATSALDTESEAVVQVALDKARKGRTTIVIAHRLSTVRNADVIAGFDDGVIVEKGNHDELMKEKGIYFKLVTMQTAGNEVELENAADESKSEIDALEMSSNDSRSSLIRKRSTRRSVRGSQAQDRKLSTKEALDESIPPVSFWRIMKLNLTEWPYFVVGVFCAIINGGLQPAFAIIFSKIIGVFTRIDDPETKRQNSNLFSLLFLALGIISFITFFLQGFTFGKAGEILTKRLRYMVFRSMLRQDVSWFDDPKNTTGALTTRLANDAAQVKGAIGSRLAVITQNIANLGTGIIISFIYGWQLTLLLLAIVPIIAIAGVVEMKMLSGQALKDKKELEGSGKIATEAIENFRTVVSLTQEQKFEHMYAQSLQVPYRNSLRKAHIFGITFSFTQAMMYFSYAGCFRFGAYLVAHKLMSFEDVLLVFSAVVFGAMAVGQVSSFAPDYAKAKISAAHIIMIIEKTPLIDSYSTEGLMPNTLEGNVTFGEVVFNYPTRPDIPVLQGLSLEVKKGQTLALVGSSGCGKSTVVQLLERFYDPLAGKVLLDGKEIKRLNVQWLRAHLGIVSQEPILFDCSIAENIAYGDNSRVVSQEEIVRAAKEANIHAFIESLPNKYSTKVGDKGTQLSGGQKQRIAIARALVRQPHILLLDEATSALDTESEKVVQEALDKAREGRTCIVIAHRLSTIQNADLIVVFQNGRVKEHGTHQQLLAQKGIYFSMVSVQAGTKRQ

IC50 | Compound
15.6 ± 0.5 µM | COc1cc([C@@H]2Oc3c(O)cc(-c4oc5cc(O)cc(O)c5c(=O)c4O)cc3[C@H]2CO)ccc1O [2,3-Dehydrosilychristin A]
16.8 ± 0.2 µM | COc1cc(-c2oc3c(O)cc([C@H]4Oc5cc(O)cc(O)c5C(=O)[C@@H]4O)cc3c2C)ccc1O [Anhydrosilychristin]
21 ± 1 µM | COc1cc([C@@H]2Oc3c(O)cc([C@H]4Oc5cc(O)cc(O)c5C(=O)[C@@H]4O)cc3[C@H]2CO)ccc1O [Silychristin A]
